# Reference: patent US20030059511A1, “Sweetener compositions and uses thereof” (AJINOMOTO CO., INC., priority 1999, published 2003)
# Assay: Equivalent concentration of bitter taste, sensory evaluation, arginine solution (Example 28)
# Type: in vivo, human
# Settings: 2% arginine solution; addition 4.4 ppm; as concentration of anhydrous caffeine; 10 panelists; no addition 0.131
# Description: With respect to the solution produced by adding derivative 1 (the product of the present invention), or adding nothing (no addition; the reference product) in the concentration shown in the following table 4 to the amino acid solution (2% solution of arginine by weight), the sensory evaluation was performed (using 10 panelists), and the equivalent concentration of bitter taste was determined. The results were shown in the table 4, wherein the equivalent concentration of bitter taste was shown in the concentration of aqueous solution of anhydrous caffeine which is a substance of bitter taste.
smiles,measurement,value
"COC(=O)[C@H](Cc1ccccc1)NC(=O)[C@H](CC(=O)O)NCCCc1ccc(OC)c(O)c1 [Derivative 1, N-[N-[3-(3-hydroxy-4-methoxyphenyl)propyl] -L-α-aspartyl]-L-phenylalanine 1-methyl ester]",Equivalent concentration of bitter taste,0.060 g/100 g
